Data reported in ChEMBL document CHEMBL1155386, “Synthesis and evaluation of 2-pyridylbenzothiazole, 2-pyridylbenzoxazole and 2-pyridylbenzofuran derivatives as 11C-PET imaging agents for beta-amyloid plaques” (Bioorg Med Chem Lett, 2010).
Activity calls are given as the source filed them. No cut-off for these calls is given here.

What was measured:
[1] = Lipophilicity, log D of the compound; type: physicochemical; details: octanol/water
[2] = biological target: T1, Amyloid-beta precursor protein (Homo sapiens, UniProt P05067); assay: Displacement of [3H]PIB from human amyloid beta (1 to 40) after 30 mins by liquid scintillation counting
[3] = biological target: T1, Amyloid-beta precursor protein; assay: Binding affinity to Abeta (1 to 40) in brain cortex of patient with Alzheimer's disease by autoradiography relative to non-specific unlabelled PIB binding; type: tissue-based; details: tested as the 3H-labelled form
Mus musculus = assay: Ex vivo binding affinity to amyloid beta (1 to 40) of APP/PS1 transgenic mouse brain at 10.3 nmol/kg, iv after 10 mins by autoradiography; type: functional, organism-based; details: tested as the 3H-labelled form

T1 sequence (P05067 whole entry): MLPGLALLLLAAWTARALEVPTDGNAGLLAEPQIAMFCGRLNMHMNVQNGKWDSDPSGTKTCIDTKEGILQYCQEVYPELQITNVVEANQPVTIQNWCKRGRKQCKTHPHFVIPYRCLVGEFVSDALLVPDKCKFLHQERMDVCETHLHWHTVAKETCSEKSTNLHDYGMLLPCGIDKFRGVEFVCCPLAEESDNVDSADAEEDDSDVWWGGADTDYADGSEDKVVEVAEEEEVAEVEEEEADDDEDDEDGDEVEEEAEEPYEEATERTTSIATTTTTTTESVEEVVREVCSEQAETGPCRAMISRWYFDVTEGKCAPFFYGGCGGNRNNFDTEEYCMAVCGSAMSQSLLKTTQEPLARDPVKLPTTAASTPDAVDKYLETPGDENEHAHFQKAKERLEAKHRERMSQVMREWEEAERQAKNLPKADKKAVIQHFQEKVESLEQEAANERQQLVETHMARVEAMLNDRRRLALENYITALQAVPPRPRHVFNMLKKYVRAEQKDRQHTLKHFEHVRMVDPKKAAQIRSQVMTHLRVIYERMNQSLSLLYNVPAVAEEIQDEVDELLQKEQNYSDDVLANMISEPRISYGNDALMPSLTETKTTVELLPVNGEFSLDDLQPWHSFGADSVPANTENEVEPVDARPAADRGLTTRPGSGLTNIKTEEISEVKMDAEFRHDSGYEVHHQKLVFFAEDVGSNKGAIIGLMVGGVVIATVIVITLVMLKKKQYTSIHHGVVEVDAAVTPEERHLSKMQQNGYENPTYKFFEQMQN

Compound | logD [1] | IC50 [2] [nM] | Activity [3] | Activity (Mus musculus)
COc1ccc2cc(-c3ccc(C(N)=O)nc3)oc2c1 | 1.7 | 60 | – | –
COc1ccc2cc(-c3ccc(C(N)=O)cn3)oc2c1 | 2.8 | 33 | – | –
CN(C)c1ccc(-c2nc3ccc(O)cc3s2)cn1 | – | – | inactive | –
CN(C)c1ncc(-c2nc3ccc(O)cc3s2)cn1 | 2.2 | 41 | – | –
[3H]C([3H])([3H])N(c1ccc(-c2nc3ccc(OC)cc3o2)cn1)C([3H])([3H])[3H] | 3.7 | 204 | – | –
COc1ccc2nc(-c3ccc(N(C)C)nc3)sc2c1 | 4.2 | 81 | – | –
[3H]C([3H])([3H])N(c1ncc(-c2nc3ccc(O)cc3o2)cn1)C([3H])([3H])[3H] | 1.8 | 75 | – | –
[3H]C([3H])([3H])N(c1ccc(-c2nc3ccc(O)cc3s2)cn1)C([3H])([3H])[3H] | 2.4 | 19 | – | –
CNc1ccc(-c2nc3ccc(OC)cc3s2)cn1 | – | – | inactive | –
CNc1ncc(-c2nc3ccc(O)cc3s2)cn1 | 0.9 | 267 | – | –
CNc1ccc(-c2nc3ccc(O)cc3s2)cc1 | – | – | – | Active
CNc1ccc2nc(-c3ccc(C(N)=O)nc3)sc2c1 | 1.7 | 35 | – | –
[3H]N(c1ccc(-c2nc3ccc(O)cc3s2)cn1)C([3H])([3H])[3H] | 1.8 | 58 | – | –
[3H]N(c1ccc(-c2nc3ccc(OC)cc3s2)cn1)C([3H])([3H])[3H] | 3.2 | 58 | – | –

Second part, the compound after the results:

logD [1] | IC50 [2] [nM] | Activity [3] | Activity (Mus musculus) | Compound
2.2 | 137 | – | – | CN(C)c1ccc(-c2nc3cc(O)ccc3o2)cn1
– | – | Active | Active | CNc1ccc(-c2nc3ccc(O)cc3o2)cn1
– | – | inactive | – | COc1ccc2nc(-c3ccc(N(C)C)nc3)oc2c1
– | – | Active | Active | CNc1ccc(-c2nc3ccc(O)cc3s2)cn1
1.3 | 182 | – | – | [3H]N(c1ccc(-c2nc3ccc(O)cc3o2)cn1)C([3H])([3H])[3H]
2 | 45 | – | – | CNc1ccc(-c2cc3ccc(O)cc3o2)cn1
1.9 | 85 | – | – | [3H]C([3H])([3H])N(c1ccc(-c2nc3ccc(O)cc3o2)cn1)C([3H])([3H])[3H]
1.5 | 74 | – | – | CNc1ccc(-c2nc3cc(O)ccc3s2)cn1
2.7 | – | – | – | CNc1ccc(-c2nc3ccc(OC)cc3o2)cn1
0.5 | 85 | – | – | CNc1ccc(-c2nc3ccc(C(N)=O)cc3s2)cn1
3.8 | 66 | – | – | CNc1ccc(-c2cc3ccc(OC)cc3o2)cn1
